Here are results for 27 molecules from patent US9957271B2, “Substituted bicyclic aza-heterocycles and analogues as sirtuin modulators” (GlaxoSmithKline, LLC, priority 2012, dated 2018).

Test [1] has as its target T1, SIRT1 (Homo sapiens, UniProt Q96EB6).
T1 sequence (Q96EB6 1-747): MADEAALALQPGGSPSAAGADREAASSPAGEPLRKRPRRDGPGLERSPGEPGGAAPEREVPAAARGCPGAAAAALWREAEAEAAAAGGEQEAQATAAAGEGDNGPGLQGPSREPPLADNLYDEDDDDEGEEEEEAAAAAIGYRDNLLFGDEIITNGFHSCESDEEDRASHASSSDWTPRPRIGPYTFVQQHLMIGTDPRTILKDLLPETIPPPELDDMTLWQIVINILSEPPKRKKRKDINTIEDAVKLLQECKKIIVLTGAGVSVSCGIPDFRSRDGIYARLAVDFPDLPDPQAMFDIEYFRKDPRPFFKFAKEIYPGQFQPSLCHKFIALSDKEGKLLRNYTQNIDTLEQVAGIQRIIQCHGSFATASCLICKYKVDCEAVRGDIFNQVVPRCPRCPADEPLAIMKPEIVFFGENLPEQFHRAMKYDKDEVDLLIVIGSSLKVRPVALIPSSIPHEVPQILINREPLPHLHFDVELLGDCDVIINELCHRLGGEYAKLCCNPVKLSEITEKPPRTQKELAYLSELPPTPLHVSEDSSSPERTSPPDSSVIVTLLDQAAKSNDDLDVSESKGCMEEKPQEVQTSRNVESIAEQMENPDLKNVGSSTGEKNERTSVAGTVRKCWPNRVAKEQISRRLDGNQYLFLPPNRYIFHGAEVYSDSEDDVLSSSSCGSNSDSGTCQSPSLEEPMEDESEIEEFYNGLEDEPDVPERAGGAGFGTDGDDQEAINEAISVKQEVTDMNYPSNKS
The test can be described thus: TAMRA based mass spectrometry assay of SIRT1 activity. It is filed as biochemical. The conditions noted are these: for TAMRA EC1.5 (μM) / TAMRA EC1.5: concentration giving 150% activation of SIRT1; for Emax: percent maximum fold activation, read-out: TAMRA % Fold Act. In short, it runs like this: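 Recombinant N-terminal His-tagged human SIRT1 (10 nM, E. coli) incubated 25 min at 25 °C with 0.5 μM 5TMR-labelled p53-derived acetyl-peptide and 120 μM βNAD+ in Tris-acetate pH 8 buffer with DTT and 0.05% BSA, compound at varying concentrations. Stopped with formic acid; deacetylated peptide or OAADPR measured by mass spectrometry relative to DMSO controls.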

In test [2] the target is T1, SIRT1. As to the kind of experiment: Trp mass spectrometry assay of SIRT1 activity. In kind it is biochemical. The note with it: for Trp EC1.5 (μM) / Trp EC1.5: concentration giving 150% activation of SIRT1; for Emax: percent maximum fold activation, read-out: Trp % Fold Act. The method in brief: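 His-tagged SIRT1 expressed in E. coli BL21(DE3), 10 nM, incubated 25 min at 25° C. with 0.5 μM Ac-RHKK(Ac)W-NH2 peptide and 120 μM βNAD+ in 50 mM HEPES pH 7.5, […], 1 mM DTT, 0.05% BSA; formic acid stop. OAADPR or deacetylated peptide measured by mass spectrometry; EC1.5 and percent maximum activation versus DMSO control.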

On to `Cc1c(-c2ccccc2Cl)nn2c(NC(=O)c3cccc(N4CCCC4)n3)cnc2c1C` [Compound 386], for which, on SIRT1 [1] (TAMRA assay), the “TAMRA EC1.5 (μM)” value was “A (EC1.5<1 μM)” and the Emax is at least 350%. On SIRT1 [2] (Trp assay), the “Trp EC1.5 (μM)” value is listed as “B (EC1.5 1-25 μM)” and the Emax was under 350%.
The matching figures for `Cc1c(-c2ccccc2C(F)(F)F)nn2c(C(=O)Nc3cccc(OC[C@H](O)CO)n3)cnc2c1C` [Compound 387, (R)-N-(6-(2,3-dihydroxypropoxy)pyridin-2-yl)-7,8-dimethyl-6-(2-(trifluoromethyl)phenyl)imidazo[1,2-b]pyridazine-3-carboxamide]: “A (EC1.5<1 μM)”, at least 350%, “A (EC1.5<1 μM)” and at least 350%.
On to `Cc1nccc(C(=O)Nc2cnc3ccc(-c4ccccc4C(F)(F)F)nn23)n1` [Compound 389], for which, at SIRT1 [1] (TAMRA assay), the “TAMRA EC1.5 (μM)” value is “A (EC1.5<1 μM)” and the Emax was at least 350%. Besides, at SIRT1 [2] (Trp assay), the “Trp EC1.5 (μM)” value is “B (EC1.5 1-25 μM)” and the Emax is under 350%.
The matching figures for `Cc1ncccc1C(=O)Nc1cnc2ccc(-c3ccccc3C(F)(F)F)nn12` [Compound 392]: “C (EC1.5>25 μM)”, under 350%, “C (EC1.5>25 μM)” and under 350%.
The matching figures for `Cc1ccc(C(=O)Nc2cnc3ccc(-c4ccccc4C(F)(F)F)nn23)cn1` [Compound 393]: “B (EC1.5 1-25 μM)”, under 350%, “C (EC1.5>25 μM)” and under 350%.
In the same order, the values of `O=C(Nc1cccnn1)c1cnc2ccc(-c3ccccc3OC(F)(F)F)nn12` [Compound 395] are “A (EC1.5<1 μM)”, at least 350%, “A (EC1.5<1 μM)” and at least 350%.
In the case of `Cc1cc(NC(=O)c2cnc3ccc(-c4ccccc4OC(F)(F)F)nn23)nc(C)n1` [Compound 398], at SIRT1 [1] (TAMRA peptide substrate), the “TAMRA EC1.5” value is “A (EC1.5<1 μM)” and the Emax is at least 350%. Further, on SIRT1 [2] (Trp peptide substrate), the “Trp EC1.5” value is on record as “B (EC1.5 1-25 μM)” and the Emax is under 350%.
Take `Cc1ccnc(NC(=O)c2cnc3ccc(-c4ccccc4OC(F)(F)F)nn23)n1` [Compound 401]: at SIRT1 [1] (TAMRA peptide substrate), the “TAMRA EC1.5” value is listed as “A (EC1.5<1 μM)” and the Emax is at least 350%. In addition, at SIRT1 [2] (Trp peptide substrate), the “Trp EC1.5” value is listed as “A (EC1.5<1 μM)” and the Emax is at least 350%.
In the case of `Cc1cc(NC(=O)c2cnc3ccc(-c4ccccc4C(F)(F)F)nn23)cc(OCC(O)CO)n1` (stereo not drawn) [Compound 406], on SIRT1 [1] (TAMRA peptide substrate), the “TAMRA EC1.5” value is “A (EC1.5<1 μM)” and the Emax is at least 350%. In addition, on SIRT1 [2] (Trp peptide substrate), the “Trp EC1.5” value is given as “A (EC1.5<1 μM)” and the Emax was at least 350%.
For the molecule `Cc1cc(-c2ccccc2C(F)(F)F)nn2c(NC(=O)c3ccccn3)cnc12` [Compound 407, N-(8-methyl-6-(2-(trifluoromethyl)phenyl)imidazo[1,2-b]pyridazin-3-yl)picolinamide], at SIRT1 [1] (TAMRA peptide substrate), the “TAMRA EC1.5” value is “A (EC1.5<1 μM)” and the Emax was at least 350%. Further, at SIRT1 [2] (Trp peptide substrate), the “Trp EC1.5” value is given as “B (EC1.5 1-25 μM)” and the Emax was at least 350%.
Regarding `Cc1nc(C(=O)Nc2cnc3c(C)cc(-c4ccccc4C(F)(F)F)nn23)cs1` [Compound 412], at SIRT1 [1] (TAMRA peptide substrate), the “TAMRA EC1.5” value is “A (EC1.5<1 μM)” and the Emax was at least 350%. In addition, at SIRT1 [2] (Trp peptide substrate), the “Trp EC1.5” value is listed as “A (EC1.5<1 μM)” and the Emax is at least 350%.
Take `Cc1nc(C(=O)Nc2cnc3c(C)cc(-c4ccccc4C(F)(F)F)nn23)c(C)s1` [Compound 413]: on SIRT1 [1] (TAMRA peptide substrate), the “TAMRA EC1.5” value is “A (EC1.5<1 μM)” and the Emax is at least 350%. Further, at SIRT1 [2] (Trp peptide substrate), the “Trp EC1.5” value is “A (EC1.5<1 μM)” and the Emax was under 350%.
Turning to `Cc1cc(NC(=O)c2cnc3ccc(-c4ccccc4OCC(O)CO)nn23)cc(C)n1` (stereo not drawn) [Compound 415], on SIRT1 [1] (TAMRA peptide substrate), the “TAMRA EC1.5” value is reported as “A (EC1.5<1 μM)” and the Emax was at least 350%. Besides, at SIRT1 [2] (Trp peptide substrate), the “Trp EC1.5” value is “B (EC1.5 1-25 μM)” and the Emax is at least 350%.
In the case of `Cc1cc(NC(=O)c2cnc3ccc(-c4cccc(OCC(O)CO)c4)nn23)cc(C)n1` (stereo not drawn) [Compound 418], on SIRT1 [1] (TAMRA peptide substrate), the “TAMRA EC1.5” value was “B (EC1.5 1-25 μM)” and the Emax was under 350%. Moreover, at SIRT1 [2] (Trp peptide substrate), the “Trp EC1.5” value is listed as “C (EC1.5>25 μM)” and the Emax is under 350%.
For `Cc1cc(NC(=O)c2cnc3ccc(-c4ccccc4OC(F)(F)F)nn23)cc(C)n1` [Compound 419], on SIRT1 [1] (TAMRA peptide substrate), the “TAMRA EC1.5” value is “A (EC1.5<1 μM)” and the Emax was at least 350%. Besides, at SIRT1 [2] (Trp peptide substrate), the “Trp EC1.5” value is reported as “A (EC1.5<1 μM)” and the Emax was at least 350%.
Regarding `Cc1c(-c2ccccc2C(F)(F)F)nn2c(NC(=O)c3cccc(N4CCCC4)n3)cnc2c1C` [Compound 421], at SIRT1 [1] (TAMRA peptide substrate), the “TAMRA EC1.5” value is reported as “A (EC1.5<1 μM)” and the Emax is at least 350%. In addition, on SIRT1 [2] (Trp peptide substrate), the “Trp EC1.5” value is listed as “A (EC1.5<1 μM)” and the Emax was at least 350%.
In the case of `Cc1cnc(C(=O)Nc2cnc3c(C)cc(-c4ccccc4C(F)(F)F)nn23)s1` [Compound 424], at SIRT1 [1] (TAMRA peptide substrate), the “TAMRA EC1.5” value is recorded as “A (EC1.5<1 μM)” and the Emax is at least 350%. Further, at SIRT1 [2] (Trp peptide substrate), the “Trp EC1.5” value is “B (EC1.5 1-25 μM)” and the Emax is under 350%.
In the same order, the values of `Cc1cc(-c2ccccc2C(F)(F)F)nn2c(NC(=O)c3cccc(N4CCOCC4)n3)cnc12` [Compound 425] are “A (EC1.5<1 μM)”, at least 350%, “A (EC1.5<1 μM)” and at least 350%.
In the case of `Cc1cc(-c2ccccc2C(F)(F)F)nn2c(NC(=O)c3cccc(OCC(O)CO)n3)cnc12` (stereo not drawn) [Compound 427], at SIRT1 [1] (TAMRA peptide substrate), the “TAMRA EC1.5” value is listed as “A (EC1.5<1 μM)” and the Emax was at least 350%. For the same molecule, at SIRT1 [2] (Trp peptide substrate), the “Trp EC1.5” value is reported as “A (EC1.5<1 μM)” and the Emax is at least 350%.
Turning to `Cc1nc2c(C)cc(-c3ccccc3C(F)(F)F)nn2c1C(=O)Nc1cccnn1` [Compound 428, 2,8-dimethyl-N-(pyridazin-3-yl)-6-(2-(trifluoromethyl)phenyl)imidazo[1,2-b]pyridazine-3-carboxamide], on SIRT1 [1] (TAMRA peptide substrate), the “TAMRA EC1.5” value was “A (EC1.5<1 μM)” and the Emax was at least 350%. On SIRT1 [2] (Trp peptide substrate), the “Trp EC1.5” value is “A (EC1.5<1 μM)” and the Emax is at least 350%.
As to `COc1nccc(NC(=O)c2cnc3ccc(-c4ccccc4OC(F)(F)F)nn23)n1` [Compound 430], on SIRT1 [1] (TAMRA peptide substrate), the “TAMRA EC1.5” value is on record as “A (EC1.5<1 μM)” and the Emax is at least 350%. Further, on SIRT1 [2] (Trp peptide substrate), the “Trp EC1.5” value was “A (EC1.5<1 μM)” and the Emax was at least 350%.
For the molecule `Cc1cccc(NC(=O)c2cnc3ccc(-c4ccccc4OC(F)(F)F)nn23)n1` [Compound 431], at SIRT1 [1] (TAMRA peptide substrate), the “TAMRA EC1.5” value was “A (EC1.5<1 μM)” and the Emax is at least 350%. At SIRT1 [2] (Trp peptide substrate), the “Trp EC1.5” value is “B (EC1.5 1-25 μM)” and the Emax was under 350%.
The matching figures for `Cc1nc(C(=O)Nc2cnc3cc(C)c(-c4ccccc4C(F)(F)F)nn23)cs1` [Compound 433]: “A (EC1.5<1 μM)”, at least 350%, “C (EC1.5>25 μM)” and under 350%.
The matching figures for `Cc1cc(C)nc(C(=O)Nc2cnc3ccc(-c4ccccc4C(F)(F)F)nn23)c1` [Compound 436]: “A (EC1.5<1 μM)”, at least 350%, “C (EC1.5>25 μM)” and under 350%.
On to `COc1cccc(C(=O)Nc2cnc3ccc(-c4ccccc4C(F)(F)F)nn23)n1` [Compound 437], for which, at SIRT1 [1] (TAMRA peptide substrate), the “TAMRA EC1.5” value is “A (EC1.5<1 μM)” and the Emax was at least 350%. Moreover, on SIRT1 [2] (Trp peptide substrate), the “Trp EC1.5” value was “A (EC1.5<1 μM)” and the Emax was at least 350%.
Regarding `O=C(Nc1cnc2ccc(-c3ccccc3C(F)(F)F)nn12)c1ncccc1F` [Compound 439], on SIRT1 [1] (TAMRA peptide substrate), the “TAMRA EC1.5” value is reported as “A (EC1.5<1 μM)” and the Emax is at least 350%. Moreover, on SIRT1 [2] (Trp peptide substrate), the “Trp EC1.5” value is “A (EC1.5<1 μM)” and the Emax is under 350%.
In the case of `Cc1cc2ncc(NC(=O)c3cnccn3)n2nc1-c1ccccc1C(F)(F)F` [Compound 442], on SIRT1 [1] (TAMRA peptide substrate), the “TAMRA EC1.5” value is on record as “A (EC1.5<1 μM)” and the Emax is at least 350%. At SIRT1 [2] (Trp peptide substrate), the “Trp EC1.5” value is “C (EC1.5>25 μM)” and the Emax is under 350%.
